Laboratory results published in patent US20020086278A1, “CHROMOGENIC MEDIA CONTAINING BLOOD OR HEMIN” (priority 1999, published 2002).
Structures can show the parent of a compound that is named as a salt. Where two headings read alike, the source gives them in different places.

Experiments:
N. meningitidis 13090 = type: cell-based; conditions: Chocolate II Agar, 0.004 g/plate; 24 h, CO2
[1] = tested on: Haemophilus influenzae 35540; assay: Example 1: growth and colony color on plates surface-spread with chromogen; type: cell-based; conditions: for Color: Substrate on Choclate II Agar, H. influ. 35540
[2] = Solubility of chromogen in DMSO; type: physicochemical; conditions: 0.08g in 1.0 ml DMSO
Description: In this series of experiments, 0.08g of each chromogen indicated below was added to 1.0 ml DMSO and thoroughly mixed.

[3] = tested on: Neisseria meningitidis 13090; assay: Example 1: growth and colony color on plates surface-spread with chromogen; type: cell-based
[4] = tested on: Haemophilus influenzae 10211; assay: as above; type: cell-based; conditions: Substrate on Choclate II Agar, H. influ. 10211
S. epidermidis 12228 [5] = assay: Example 2: effect of incubation conditions on colony color formation; type: cell-based, Staphylococcus epidermidis
S. aureus 25923 = assay: as above; type: cell-based, Staphylococcus aureus
[6] = tested on: Staphylococcus Coag Neg (step); assay: Example 3: colony color on chromogenic TSA II with 5% sheep blood (chromogen in medium); type: cell-based; conditions: for Colony Color on Various Chromogenic TSA II with 5% Sheep Blood: 18 h; for Colony Color (Summary): chromogenic TSA II with 5% Sheep Blood, 0.1 g/l, 5 strains tested
S. epidermidis 12228 [7] = assay: Example 1: growth and colony color on plates surface-spread with chromogen; type: cell-based; conditions: for Color: S. epi 12228
H. influenzae 35540 = assay: Example 2: effect of incubation conditions on colony color formation; type: cell-based
H. influenzae 10211 = assay: as above; type: cell-based
N. sicca 29193 [8] = assay: as above; type: cell-based
N. gonorrhoeae 35201 = assay: Example 1: growth and colony color on plates surface-spread with chromogen; type: cell-based; conditions: for Substrates Producing Growth Inhibition: Summary of Table I, N. gonorrhoeae 35201; for Growth: Substrate on Choclate II Agar, N. gono. 35201
[9] = tested on: Citrobacter freundii (cifr); assay: Example 3: colony color on chromogenic TSA II with 5% sheep blood (chromogen in medium); type: cell-based; conditions: for Colony Color (Summary): chromogenic TSA II with 5% Sheep Blood, 0.1 g/l, 2 strains tested; for Colony Color: CO2
[10] = tested on: bacterial test strains of Example 1; assay: Example 1: inhibitory effect over all test strains; type: cell-based; conditions: Example 1, all test strains
[11] = tested on: Branhamella catarrhalis 25238; assay: Example 1: growth and colony color on plates surface-spread with chromogen; type: cell-based; conditions: for Growth: B. catt 25258
[12] = tested on: Staphylococcus aureus 25923; assay: as above; type: cell-based; conditions: S. aureus 25923
N. sicca 29193 [13] = assay: as above; type: cell-based
[14] = tested on: Group D Strep / Enterococcus; assay: Example 3: colony color on chromogenic TSA II with 5% sheep blood (chromogen in medium); conditions: 7 of 7 strains
S. pneumoniae 6303 = assay: Example 2: effect of incubation conditions on colony color formation; type: cell-based, Streptococcus pneumoniae; conditions: TSA II 5% Sheep Blood, 0.004 g/plate; 24 h, CO2
C. perfringens 13124 = type: cell-based, Clostridium perfringens; conditions: TSA II 5% Sheep Blood, 0.004 g/plate; 5 d, ANA
S. mitis 6249 = assay: Example 2: effect of incubation conditions on colony color formation; type: cell-based, Streptococcus mitis; conditions: TSA II 5% Sheep Blood, 0.004 g/plate; 24 h, CO2
55 strains = assay: Example 3: color, hemolytic activity and growth over all 55 strains; type: cell-based; conditions: Gram-positives
Text: Steers, E. et al., Antibiot.

Strep Grp G 27961 = assay: Example 2: effect of incubation conditions on colony color formation; type: cell-based, Streptococcus group G; conditions: 0.004 g/plate, 24 h, CO2
S. agalactiae BD747 = assay: as above; type: cell-based, Streptococcus agalactiae; conditions: 0.004 g/plate, 24 h, CO2
S. agalactiae 13813 = assay: as above; type: cell-based, Streptococcus agalactiae; conditions: 0.004 g/plate, 24 h, CO2
S. agalactiae 6638 = assay: as above; type: cell-based, Streptococcus agalactiae; conditions: 0.004 g/plate, 24 h, CO2
S. agalactiae BD11586 = assay: as above; type: cell-based, Streptococcus agalactiae; conditions: Chocolate II Agar, 0.004 g/plate; 24 h, CO2
Strep Grp C 12388 = assay: as above; type: cell-based, Streptococcus group C; conditions: 0.004 g/plate, 24 h, CO2
Strep Grp G 12394 = assay: as above; type: cell-based, Streptococcus group G; conditions: 0.004 g/plate, 24 h, CO2
S. agalactiae 4768 = assay: as above; type: cell-based, Streptococcus agalactiae; conditions: 0.004 g/plate, 24 h, CO2
[15] = Substrate on Choclate II Agar, N. mening. 13090

O=P(O)(O)Oc1c[nH]c2cc(Cl)c(Br)cc12 [Mag-Phos, 5-Br-6-Cl-3-indolyl-phosphate, p-touidine salt]
Colony Color (N. meningitidis 13090): NC (col
Color [1]: purple
Color ([1]; listed as Mag-phos): dark purple
Substrates Producing Color ([1]; Summary of Table I, H. influenzae 35540, 10211): Mag-phos
Solubility / appearance of solution in DMSO [2]: clear and light orange in color
Growth [3]: = NC
Color [3, 15]: colorless
Color [4]: purple
Color ([4]; listed as Mag-phos): dark purple
Colony Color (S. epidermidis 12228 [5]): purple (m)
Colony Color (S. aureus 25923): purple (m)
Colony Color ([6]; step 12228, CO2, 21 h): 0
Colony Color ([6]; step 12228, air, 21 h): lp
Colony Color ([6]; step cdc1, CO2, 21 h): lp
Colony Color ([6]; step cdc1, air, 21 h): lp
Colony Color ([6]; step cdc2, CO2, 21 h): 0
Colony Color ([6]; step cdc2, air, 21 h): 0
Colony Color ([6]; step cdc3, CO2, 21 h): 0
Colony Color ([6]; step cdc3, air, 21 h): 0
Colony Color ([6]; step cdc4, CO2, 21 h): lp
Colony Color ([6]; step cdc4, air, 21 h): lp
Color (S. epidermidis 12228 [7]; Choc II): purple
Substrates Producing Color (S. epidermidis 12228 [7]; Summary of Table I, S. epidermidis 12228): Mag-phos
Color (S. epidermidis 12228 [7]; TSA II 5SB): purple
Color (S. epidermidis 12228 [7]; TSA Plain): purple
Colony Color (H. influenzae 35540): purple (m)
Colony Color (H. influenzae 10211): purple (m)
Colony Color (N. sicca 29193 [8]): purple (m)
Substrates Producing Growth Inhibition (N. gonorrhoeae 35201): Mag-phos
Colony Color (Summary) [9]: 0
Colony Color ([9]; cifr 8454, 21 h): 0
Colony Color ([9]; cifr 33128, 21 h): 0
Inhibitory effect [10]: most inhibitory effect
Substrates Producing Growth Inhibition ([11]; Summary of Table I, B. catarrhalis 25238): Mag-Phos
Growth ([11]; TSA II 5SB): <<
Color ([12]; Choc II): purple
Substrates Producing Color ([12]; Summary of Table I): Mag-phos
Color ([12]; TSA II 5SB): purple
Color ([12]; TSA Plain): purple
Color (N. sicca 29193 [13]; Substrate on Choclate II Agar, N. sicca. 29193): purple
Substrates Producing Color (N. sicca 29193 [13]; Summary of Table I, N. sicca 29193): Mag-phos

CC(=O)N[C@H]1[C@H](Oc2c[nH]c3ccc(Br)c(Cl)c23)O[C@H](CO)[C@H](O)[C@@H]1O [X-Acglmn, 5-Br-4-Cl-3-indolyl-N-Acetyl-β-D-galactosaminide]
Colony Color [14]: dark blue
Colony Color (S. pneumoniae 6303): blue (l)
Growth [3, 15]: <
Substrates Producing Growth Inhibition ([3]; Summary of Table I, N. meningitidis 13090): Slight inhib w/ X-
Colony Color (C. perfringens 13124): blue (l)
Colony Color ([6]; one S. epidermidis): blue
Colony Color on Various Chromogenic TSA II with 5% Sheep Blood ([6]; step 12228, CO2): 0
Colony Color ([6]; step 12228, CO2, 21 h): 0
Colony Color ([6]; step 12228, air, 21 h): 0
Colony Color on Various Chromogenic TSA II with 5% Sheep Blood ([6]; step cdc1, CO2): 0
Colony Color ([6]; step cdc1, CO2, 21 h): 0
Colony Color ([6]; step cdc1, air, 21 h): 0
Colony Color ([6]; step cdc2, CO2, 21 h): 0
Colony Color ([6]; step cdc2, air, 21 h): 0
Colony Color ([6]; step cdc3, CO2, 21 h): 0
Colony Color ([6]; step cdc3, air, 21 h): 1b
Colony Color on Various Chromogenic TSA II with 5% Sheep Blood ([6]; step cdc4, CO2): 0
Colony Color ([6]; step cdc4, CO2, 21 h): 0
Colony Color ([6]; step cdc4, air, 21 h): 0
Colony Color on Various Chromogenic TSA II with 5% Sheep Blood ([6]; stha cdc2, CO2): 0
Colony Color on Various Chromogenic TSA II with 5% Sheep Blood ([6]; stsa cdc3, CO2): 0
Colony Color (Summary) [9]: 0
Colony Color ([9]; cifr 8454, 18 h): 0
Colony Color ([9]; cifr 8454, 21 h): 0
Colony Color ([9]; cifr 33128, 18 h): 0
Colony Color ([9]; cifr 33128, 21 h): 0
Colony Color (S. mitis 6249): blue (vl)

OC[C@H]1O[C@@H](Oc2c[nH]c3ccc(Br)c(Cl)c23)[C@H](O)[C@@H](O)[C@H]1O [X-Gal, 5-Br-4-Cl-3-indolyl-β-D-galactopyranoside]
Colony Color (S. pneumoniae 6303): blue (l)
Colony Color (C. perfringens 13124): blue (m)
Colony Color ([6]; step 12228, CO2, 21 h): 0
Colony Color ([6]; step 12228, air, 21 h): 0
Colony Color ([6]; step cdc1, CO2, 21 h): 0
Colony Color ([6]; step cdc1, air, 21 h): 0
Colony Color ([6]; step cdc2, CO2, 21 h): 0
Colony Color ([6]; step cdc2, air, 21 h): 0
Colony Color ([6]; step cdc4, CO2, 21 h): 0
Colony Color ([6]; step cdc4, air, 21 h): 0
Growth (N. gonorrhoeae 35201): <
Colony Color (Summary) [9]: +
Colony Color ([9]; cifr 8454, 21 h): gb
Colony Color ([9]; cifr 33128, 21 h): gb
Usefulness for Gram-positives (55 strains): not particularly useful

OC[C@H]1O[C@@H](Oc2c[nH]c3ccc(Br)c(Cl)c23)[C@H](O)[C@@H](O)[C@@H]1O [X-Glucoside, 5-Br-4-Cl-3-indolyl-β-D-glucopyranoside]
Colony Color [14]: blue
Colony Color (Summary) [6]: 0
Colony Color on Various Chromogenic TSA II with 5% Sheep Blood ([6]; step 12228, CO2): 0
Colony Color ([6]; step 12228, CO2, 21 h): 0
Colony Color ([6]; step 12228, air, 21 h): 0
Colony Color on Various Chromogenic TSA II with 5% Sheep Blood ([6]; step cdc1, CO2): 0
Colony Color ([6]; step cdc1, CO2, 21 h): 0
Colony Color ([6]; step cdc1, air, 21 h): 0
Colony Color ([6]; step cdc2, CO2, 21 h): 0
Colony Color ([6]; step cdc2, air, 21 h): 0
Colony Color ([6]; step cdc3, CO2, 21 h): 0
Colony Color ([6]; step cdc3, air, 21 h): 0
Colony Color on Various Chromogenic TSA II with 5% Sheep Blood ([6]; step cdc4, CO2): 0
Colony Color ([6]; step cdc4, CO2, 21 h): 0
Colony Color ([6]; step cdc4, air, 21 h): 0
Colony Color on Various Chromogenic TSA II with 5% Sheep Blood ([6]; stha cdc2, CO2): 0
Colony Color on Various Chromogenic TSA II with 5% Sheep Blood ([6]; stsa cdc3, CO2): 0
Growth (N. gonorrhoeae 35201): <
Colony Color (Summary) [9]: 0
Colony Color ([9]; cifr 8454, 18 h): 0
Colony Color ([9]; cifr 8454, 21 h): 0
Colony Color ([9]; cifr 33128, 18 h): 0
Colony Color ([9]; cifr 33128, 21 h): 0
Growth ([11]; TSA Plain): <

O=C(O)[C@H]1O[C@@H](Oc2c[nH]c3ccc(Br)c(Cl)c23)[C@H](O)[C@@H](O)[C@@H]1O [X-Glucuro, X-Glucuronide]
Colony Color (Strep Grp G 27961; Chocolate II Agar): blue (d)
Colony Color (Strep Grp G 27961; TSA II 5% Sheep Blood): blue (d)
Colony Color (S. agalactiae BD747; Chocolate II Agar): blue (l)
Colony Color (S. agalactiae BD747; TSA II 5% Sheep Blood): grey blue
Colony Color (S. agalactiae 13813; Chocolate II Agar): blue (d)
Colony Color (S. agalactiae 13813; TSA II 5% Sheep Blood): blue (d)
Colony Color (S. agalactiae 6638; Chocolate II Agar): blue (m)
Colony Color (S. agalactiae 6638; TSA II 5% Sheep Blood): blue (m)
Colony Color (S. agalactiae BD11586): blue (vl)
Colony Color (Summary) [6]: 0
Colony Color on Various Chromogenic TSA II with 5% Sheep Blood ([6]; step 12228, CO2): 0
Colony Color on Various Chromogenic TSA II with 5% Sheep Blood ([6]; step cdc1, CO2): 0
Colony Color on Various Chromogenic TSA II with 5% Sheep Blood ([6]; step cdc4, CO2): 0
Colony Color on Various Chromogenic TSA II with 5% Sheep Blood ([6]; stha cdc2, CO2): 0
Colony Color on Various Chromogenic TSA II with 5% Sheep Blood ([6]; stsa cdc3, CO2): 0
Substrates Producing Growth Inhibition (N. gonorrhoeae 35201): X-Glucuro
Colony Color (Summary) [9]: 0
Colony Color ([9]; cifr 8454, 18 h): 0
Colony Color ([9]; cifr 33128, 18 h): 0
Colony Color (Strep Grp C 12388; Chocolate II Agar): blue (d)
Colony Color (Strep Grp C 12388; TSA II 5% Sheep Blood): blue (d)
Growth ([11]; TSA Plain): >>
Colony Color (Strep Grp G 12394; Chocolate II Agar): blue (d)
Colony Color (Strep Grp G 12394; TSA II 5% Sheep Blood): grey blue
Colony Color (S. agalactiae 4768; Chocolate II Agar): blue (l)
Colony Color (S. agalactiae 4768; TSA II 5% Sheep Blood): blue (l)
